In patent US20040253289A1, “Natural plant compound with anti-HIV activity” (MIKONIK TECHNOLOGIES, LTD., priority 2004, published 2004):

Assays:
[1] = system: HIV-1zmb high/rapid strain; assay: Indirect immunofluorescence (IF), HIV-specific antigens on infected cells; type: cell-based; conditions: 3rd day after infecting
Text: (§1) In all experiments the suspensional T-lymphoblastoid cell line MT-4 was used. Passages have been carried out every three days for achieving the initial cell concentration at about 4-5·10^5 cells ml^−1.
(§2) HIV-1zmb high/rapid strain with the titer more than 6.0 log TCID50 isolated in Belarus has been used in the tests.
(§3) The tests have been carried out under therapeutic circuit when the testing compound and virus were put into the cell culture simultaneously.
The indirect immunofluorescence assay is a useful means for determining the number of cells productively infected with HIV [Johnson V. A., Byington R. E. HIV indirect immunofluorescence assay. In “Techniques in HIV Research”: Stockton Press, 1990. P. 87-91]. This assay is quantitative and can be done using living cells. The technique gives the possibility to determine HIV-specific antigens expressed on cell surface membranes of the virus-infected cells. On the 3rd day after infecting, cells have been transferred onto wells of the laminated multiwell slides and fixed by cold (4° C.) acetone. Then the samples with fixed cells were treated by HIV-1-seropositive serum and then by FTC-conjugated sheep anti-human IgG. The resulting effect was estimated via evaluation of percentage of positive cells that was calculated using fluorescent microscope and taking into account 200 cells. […]

[2] = system: HIV-1zmb high/rapid strain; assay: In vitro anti-HIV activity in infected cell culture (overall, three tests); type: cell-based
Text: as §1, §2, §3

mice = conditions: acute toxicity; cited from earlier work
rats = conditions: acute toxicity; cited from earlier work
[3] = prolonged and chronic experiments; cited from earlier work
Siberian sturgeon fry = Siberian sturgeon fry treated with solution; cited from earlier work
[4] = system: human immunodeficiency virus; conditions: cited from earlier work; for inhibition of viral replication: in vitro

CC(C)[C@@H](C)[C@@H](O)[C@H](O)[C@@H](C)[C@H]1CC[C@H]2[C@@H]3COC(=O)[C@H]4C[C@H](O)[C@H](O)C[C@]4(C)[C@H]3CC[C@]12C [24-epibrassinolide]
production of viral-specific antigens on the cell's surface [1]: significantly decreased production of viral-specific antigens
amount of the living cells in the infected culture, higher in comparison with untreated control ([2]; 4-5th days after infecting): more than 50%
average efficient concentration as anti-HIV agent in vitro ([2]; each test done in three repetitions, listed as EBI): 10 ng/mL
LD50 (mice): more than 1000 mg·kg^−1
LD50 (rats): more than 2000 mg·kg^−1
postponed negative effects [3]: no postponed negative effects
increase of bacteriolytic activity of lysozyme in comparison with the control fish (Siberian sturgeon fry): up to 50%
γ-globulin level higher than in the control (Siberian sturgeon fry): 10 to 65%

C[C@H](CCCC(C)(C)O)[C@H]1CC[C@H]2[C@@H]3[C@@H](O)C=C4C[C@@H](O)CC[C@]4(C)[C@H]3CC[C@]12C [7β,25-dihydroxycholesterol]
antiviral concentration, fold lower than the highest concentration tested at which no toxicity was measurable ([4]; HIV replication in vitro): 13- to 25 fold
inhibition of viral replication [4]: inhibited viral replication at micromolar concentrations

CC(C)CCC[C@@H](C)[C@H]1CC[C@H]2[C@@H]3[C@@H](O)C=C4C[C@@H](O)CC[C@]4(C)[C@H]3CC[C@]12C [7β-hydroxycholesterol]
inhibition of viral replication [4]: inhibited viral replication at micromolar concentrations

C[C@H](CCCC(C)(C)O)[C@H]1CC[C@H]2[C@@H]3CC=C4C[C@@H](O)CC[C@]4(C)[C@H]3CC[C@]12C [25-hydroxycholesterol]
inhibition of viral replication [4]: inhibited viral replication at micromolar concentrations
